Legend:
[1] = target: CDK7/cyclinH/MAT1 complex (Homo sapiens, UniProt P50613); test: In-vitro enzymatic inhibitory activity testing, CDK7 inhibition assay (Caliper EZ Reader II); format: biochemical; conditions: CDK7/cyclinH/MAT1 6 nM, 180 min at 27° C.
How it was run: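 Enzyme preincubated 10 min with compound, then peptide substrate plus ATP added in 80 mM MES pH 6.5, 10 mM MgCl2 buffer; 180 min at 27 °C, stopped with EDTA.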

CDK9/cyclinT1 complex = CDK9/cyclinT1 complex (Homo sapiens, UniProt P50750); test: In-vitro enzymatic inhibitory activity testing, CDK9 inhibition assay (Caliper EZ Reader II); format: biochemical; conditions: CDK9/cyclinT1 8 nM, 180 min at 27° C.
How it was run: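 Phosphorylated and unphosphorylated fluorescent peptide were resolved by mobility-shift electrophoresis, with IC50 taken from a nonlinear regression of dose-response data. Reactions ran 180 min at 27 °C in MES buffer pH 6.5 with MgCl2, after 10 min enzyme–compound preincubation, using 8 nM CDK9/cyclinT1 and 5-FAM-CDK9tide.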

ovarian cancer A2780 = test: Cell biological activity detection (CyQuant, 72 hours), A2780; format: cell-based, human; conditions: Homo sapiens, A2780, 72 h, A2780 cells, incubation for 72 hours
How it was run: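 IC50 derived from CyQuant Direct nuclear staining (488 nm excitation) after 72 h compound exposure at 37 °C, 5% CO2. Compounds tested in 9 concentrations from 10 μM, 1:4 steps, 0.2% DMSO, on A2780 or HCC70 cells plated overnight at 2000/well in RPMI 1640 + 10% FBS.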

[2] = Caco-2 membrane permeability and efflux rate; format: in vitro ADME; conditions: human, Caco-2, Caco-2, 5 μM; for Papp B→A at 2 h, 5 μM: basal end to top end; for efflux ratio at 2 h, 5 μM: read-out: ER (efflux rate); for Papp A→B at 2 h, 5 μM: top end to basal end
Protocol: The recovered Caco-2 cell suspension was seeded into a […] plate and cultured for 14-18 days. After being cultured for 14 days, the cells were fused and differentiated to be ready for a transport experiment. The Caco-2 cell plate was taken out from the incubator. Stock solutions of a to-be-tested compound and a control compound were formulated with DMSO and diluted with an HBSS (10 mM HEPES, pH 7.4) buffer to a final concentration of 5 μM. A test compound solution and a control drug solution were added to each well (top end) of an insert culture plate, and the HBSS (10 mM HEPES, pH 7.4) buffer was added to each well of a test compound receiving plate (basal end). When measuring the transport rate of the compound from the basal end to the top end, the test compound solution and the control drug solution were added to each well of the receiving plate (basal end), the HBSS (10 mM HEPES, pH 7.4) buffer solution was added to each well (top end) of the insert culture plate for the test compound solution, and incubation was carried out for 2 hours in a CO2 incubator at 37° C. After the transport experiment was completed, vortexing was carried out for 10 minutes at 1000 rpm. After sample quenching at each time point, LC/MS/MS analysis was carried out. A fluorescence value was measured after a two-hour transport experiment, a lucifer yellow solution was added in a transwell chamber (top end), a transport buffer solution was added in the basal end, and incubation was carried out for 30 minutes in the CO2 incubator at 37° C. The solution was taken out directly from the top end and the basal end (using basolateral wells) and transferred to a new 96-well plate. A cell fluorescence value was measured by a microplate reader (to detect membrane integrity), an excitation wavelength was […], and an emission wavelength was […]. All data were calculated by using Microsoft Excel, and a peak area was calculated according to chromatograms. An apparent permeability coefficient (Papp, unit: 10-6, cm/s) and an efflux rate (ER) of the compounds in Caco-2 cells were calculated by the specific concentrations of a receiving end and an administering end.

Chain of CDK9/cyclinT1 complex (P50750 whole entry, species assumed): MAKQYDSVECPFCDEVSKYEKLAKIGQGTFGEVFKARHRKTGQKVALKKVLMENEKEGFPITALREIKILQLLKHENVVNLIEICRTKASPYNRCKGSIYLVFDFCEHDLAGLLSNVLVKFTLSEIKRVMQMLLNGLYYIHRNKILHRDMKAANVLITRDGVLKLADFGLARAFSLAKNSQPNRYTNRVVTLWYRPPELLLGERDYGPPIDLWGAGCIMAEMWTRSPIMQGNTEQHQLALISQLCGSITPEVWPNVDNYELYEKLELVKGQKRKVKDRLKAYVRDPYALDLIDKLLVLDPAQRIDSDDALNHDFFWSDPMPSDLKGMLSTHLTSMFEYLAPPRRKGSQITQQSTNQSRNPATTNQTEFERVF
Chain of CDK9/cyclinT1 complex (O60563 whole entry partner, species assumed): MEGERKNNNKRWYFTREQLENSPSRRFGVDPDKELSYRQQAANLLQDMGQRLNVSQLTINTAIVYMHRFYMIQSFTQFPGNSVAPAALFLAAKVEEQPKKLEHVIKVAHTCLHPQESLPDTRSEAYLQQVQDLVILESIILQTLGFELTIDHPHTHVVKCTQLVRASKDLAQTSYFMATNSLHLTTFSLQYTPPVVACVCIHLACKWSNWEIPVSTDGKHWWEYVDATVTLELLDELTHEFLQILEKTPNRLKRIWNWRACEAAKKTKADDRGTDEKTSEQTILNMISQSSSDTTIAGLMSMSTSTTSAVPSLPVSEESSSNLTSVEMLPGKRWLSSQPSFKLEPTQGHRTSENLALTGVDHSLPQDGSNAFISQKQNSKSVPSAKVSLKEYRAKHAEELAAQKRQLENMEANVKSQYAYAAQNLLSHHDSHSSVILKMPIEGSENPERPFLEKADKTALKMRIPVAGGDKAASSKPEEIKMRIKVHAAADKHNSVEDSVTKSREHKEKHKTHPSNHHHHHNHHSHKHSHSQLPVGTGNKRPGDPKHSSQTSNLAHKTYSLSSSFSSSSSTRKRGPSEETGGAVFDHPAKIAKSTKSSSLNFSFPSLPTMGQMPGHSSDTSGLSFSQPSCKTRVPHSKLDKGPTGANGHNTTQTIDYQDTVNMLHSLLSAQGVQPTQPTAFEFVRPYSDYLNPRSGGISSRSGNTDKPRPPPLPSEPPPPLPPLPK
Chain of CDK7/cyclinH/MAT1 complex (P50613 whole entry, species assumed): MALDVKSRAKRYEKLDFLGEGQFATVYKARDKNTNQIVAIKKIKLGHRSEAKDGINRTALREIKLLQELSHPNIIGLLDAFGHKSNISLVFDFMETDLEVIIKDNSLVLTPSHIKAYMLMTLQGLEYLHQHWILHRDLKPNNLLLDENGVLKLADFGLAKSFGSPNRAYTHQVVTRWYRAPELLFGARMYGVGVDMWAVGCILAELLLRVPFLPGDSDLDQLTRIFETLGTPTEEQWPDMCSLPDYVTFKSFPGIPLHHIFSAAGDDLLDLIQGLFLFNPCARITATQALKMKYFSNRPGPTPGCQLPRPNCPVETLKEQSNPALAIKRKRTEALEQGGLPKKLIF
Chain of CDK7/cyclinH/MAT1 complex (P51946 whole entry partner, species assumed): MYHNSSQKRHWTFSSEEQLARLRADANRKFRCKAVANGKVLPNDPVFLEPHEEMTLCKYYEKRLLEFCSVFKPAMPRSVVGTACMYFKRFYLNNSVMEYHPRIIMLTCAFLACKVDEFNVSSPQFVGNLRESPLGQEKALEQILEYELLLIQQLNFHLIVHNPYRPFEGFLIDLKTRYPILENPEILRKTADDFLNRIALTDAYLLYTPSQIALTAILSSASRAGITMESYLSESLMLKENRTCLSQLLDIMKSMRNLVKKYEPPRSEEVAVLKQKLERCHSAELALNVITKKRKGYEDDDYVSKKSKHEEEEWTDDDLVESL
Chain of CDK7/cyclinH/MAT1 complex (P51948 whole entry partner, species assumed): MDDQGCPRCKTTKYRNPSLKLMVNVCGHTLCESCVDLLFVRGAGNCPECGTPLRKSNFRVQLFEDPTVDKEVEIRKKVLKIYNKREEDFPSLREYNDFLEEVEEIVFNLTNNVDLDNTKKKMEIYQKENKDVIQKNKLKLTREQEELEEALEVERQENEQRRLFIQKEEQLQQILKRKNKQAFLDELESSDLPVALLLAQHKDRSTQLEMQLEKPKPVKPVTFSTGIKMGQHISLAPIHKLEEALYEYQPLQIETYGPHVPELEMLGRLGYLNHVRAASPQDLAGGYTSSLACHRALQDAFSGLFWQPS

Compound	IC50 [1] [µM]	IC50 (CDK9/cyclinT1 complex) [µM]	IC50 (ovarian cancer A2780) [µM]	Papp B→A at 2 h, 5 μM [2] [×10⁻⁶ cm/s]	efflux ratio at 2 h, 5 μM [2]	Papp A→B at 2 h, 5 μM [2] [×10⁻⁶ cm/s]
CP(C)(=O)c1cccc2c(-c3nc(N[C@H]4COC[C@@H]4O)ncc3C(F)(F)F)c[nH]c12 [Compound 87]	< 0.02	> 50	< 0.02	25.1	37.1	0.68
CP(C)(=O)c1cccc2c(-c3nc(NCC(F)(F)CO)ncc3C(F)(F)F)c[nH]c12 [Compound 102, (3-(2-((2,2-difluoro-3-hydroxypropyl)amino)-5-(trifluoromethyl)pyrimidin-4-yl)-1H-indole-7-yl)dimethylphosphine oxide]	< 0.02	> 50	< 0.02	26.8	7.8	3.43
CP(C)(=O)c1cccc2c(-c3nc(NCCO)ncc3C(F)(F)F)c[nH]c12 [Compound 97, (3-(2-((2-hydroxyethyl)amino)-5-(trifluoromethyl)pyrimidin-4-yl)-1H-indole-7-yl)dimethylphosphine oxide]	< 0.02	> 50	< 0.02	32.3	20.8	1.55
C[C@@H](CO)Nc1ncc(Cl)c(-c2c[nH]c3c(P(C)(C)=O)cccc23)n1 [Compound 103, (S)-(3-(5-chloro-2-((1-hydroxypropan-2-yl)amino)pyrimidin-4-yl)-1H-indole-7-yl)dimethylphosphine oxide]	0.02 to 0.2	> 50	0.02 to 0.2	36.1	5.38	6.7
CP(C)(=O)c1cccc2c(-c3nc(NCCCO)ncc3C(F)(F)F)c[nH]c12 [Compound 89, (3-(2-((3-hydroxypropyl)amino)-5-(trifluoromethyl)pyrimidin-4-yl)-1H-indole-7-yl)dimethylphosphine oxide]	< 0.02	> 50	< 0.02	30.6	14.3	2.13
CC(CO)CNc1ncc(C(F)(F)F)c(-c2c[nH]c3c(P(C)(C)=O)cccc23)n1 (single isomer, unassigned) [Compound 149]	< 0.02	> 50	0.02 to 0.2	32.8	7.8	4.2
CP(C)(=O)c1cccc2c(-c3nc(N[C@@H]4CC[C@H]4O)ncc3C(F)(F)F)c[nH]c12 [Compound 153, (3-(2-(((1R,2R)-2-hydroxycyclobutyl)amino)-5-(trifluoromethyl)pyrimidin-4-yl)-1hydro-indole-7-yl)dimethylphosphine oxide]	< 0.02	> 50	0.02 to 0.2	24.8	5.94	4.17
C[C@@H](CO)Nc1ncc(C(F)(F)F)c(-c2c[nH]c3c(P(C)(C)=O)c(F)ccc23)n1 [Compound 195]	< 0.02	> 50	< 0.02	24.4	2.36	10.3
CP(C)(=O)c1cccc2c(-c3nc(NC4(CO)COC4)ncc3C(F)(F)F)c[nH]c12 [Compound 114, (3-(2-((3-(hydroxymethyl)oxetan-3-yl)amino)-5-(trifluoromethyl)pyrimidin-4-yl)-1H-indole-7-yl)dimethylphosphine oxide]	< 0.02	> 50	< 0.02	25.4	31.9	0.8

— patent US20240124504A1, “AROMATIC HETEROCYCLIC COMPOUND, AND PHARMACEUTICAL COMPOSITION AND APPLICATION THEREOF” (GT APEIRON THERAPEUTICS LIMITED, priority 2020, published 2024)
